Data published in patent US20260166039A1 (SCHRÖDINGER, INC., priority 2022, published 2026).
Read-outs that look alike come from different tables or passages of the source.

Key:
[1] = system: phosphorylation of Cdc2 Y15 (Wee1 substrate) in A427 cells; assay: Phosphorylated Cdc2 MSD Electrochemiluminescence Assay; type: cell-based; conditions: Homo sapiens
In short: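 A427 cells (RPMI 1640, 10% FBS) treated 20 h after plating with 3-fold serial compound dilutions, in duplicate, 37 °C, 5% CO2; total incubation 6 h. Lysate Cdc2 pY15 read by MSD electrochemiluminescence sandwich immunoassay; % remaining signal normalised to DMSO (high) and reference Wee1 inhibitor (low) controls.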

Wee1 kinase domain = target: T1, Wee1 kinase domain (Homo sapiens, UniProt P30291); assay: Wee1 Kinase Biochemical Assay (ADP-Glo); conditions: 15 uM ATP
T1 construct: Wee1 kinase domain was purchased from Carna (catalog #05-177); purchased Carna 05-177
In short: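 Poly(Lys,Tyr 4:1) phosphorylation by the kinase domain is followed as ADP output (ADP-Glo) after 4 h at 25 °C, with ATP at 15 uM. Values are percent inhibition between vehicle and full-inhibition controls.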

[2] = A-427, class symbols, read-out: A427 pCDC2 MSD IC50
[3] = class symbols, 1 nM Wee1 enzyme, 4 hours at 25° C.

T1 sequence (P30291 299-569 limits assumed): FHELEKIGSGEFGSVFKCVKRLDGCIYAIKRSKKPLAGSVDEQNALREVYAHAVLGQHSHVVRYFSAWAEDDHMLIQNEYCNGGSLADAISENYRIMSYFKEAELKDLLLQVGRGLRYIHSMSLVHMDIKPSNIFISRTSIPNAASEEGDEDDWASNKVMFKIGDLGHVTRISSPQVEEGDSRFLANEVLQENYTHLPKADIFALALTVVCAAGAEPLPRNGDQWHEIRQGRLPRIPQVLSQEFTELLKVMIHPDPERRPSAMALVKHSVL

| Compound | IC50 [1, 2] [nM] | IC50 (Wee1 kinase domain; [3]) [nM] | IC50 ([1]; A-427, pCDC2 MSD) [nM] | IC50 (Wee1 kinase domain; Wee1 kinase domain, ADP-Glo) [nM] |
| --- | --- | --- | --- | --- |
| Cc1cc(Nc2ncc3c(n2)N(c2cccc(N4C(=O)OC[C@@H]4C)n2)[C@@H]2CC(C)(C)OC[C@]32C)ccc1O[C@@H]1CCN(C)C1 (single isomer, unassigned) [Example 347] |  |  | 100 to 1000 | < 10 |
| CN1[C@@H]2C[C@H]1CN(c1ccc(Nc3ncc4c(n3)N(c3cccc(N5CCCC5=O)n3)[C@@H]3CC(C)(C)OC[C@]43C)cc1)C2 [Example 703, 1-(6-((4bR,8aR)-4b,7,7-trimethyl-2-((4-((1R,5S)-6-methyl-3,6-diazabicyclo[3.1.1]heptan-3-yl)phenyl)amino)-4b,7,8,8a-tetrahydropyrano[3′,4′:4,5]pyrrolo[2,3-d]pyrimidin-9(5H)-yl)pyridin-2-yl)pyrrolidin-2-one] | 100 to 1000 | < 10 |  |  |
| CC1(C)C[C@H]2N(c3cccc(N4CCOC4=O)n3)c3nc(Nc4ccc([C@H]5CNCC5(F)F)cc4)ncc3[C@@]2(C)CO1 [Example 682, 3-(6-((4bR,8aR)-2-((4-((S)-4,4-difluoropyrrolidin-3-yl)phenyl)amino)-4b,7,7-trimethyl-4b,7,8,8a-tetrahydropyrano[3′,4′:4,5]pyrrolo[2,3-d]pyrimidin-9(5H)-yl)pyridin-2-yl)oxazolidin-2-one] | 100 to 1000 | < 10 |  |  |
| CNCc1cccc(N2c3nc(Nc4ccc(N5C6CCC5COC6)cc4)ncc3[C@@]3(C)COC(C)(C)C[C@@H]23)n1 (single isomer, unassigned) [Example 87] |  |  | 100 to 1000 | < 10 |
| C[C@H]1COC(=O)N1c1cccc(N2c3nc(Nc4ccc([C@@H]5CCNC5)cc4)ncc3[C@@]3(C)COC(C)(C)C[C@@H]23)n1 (single isomer, unassigned) [Example 275] |  |  | 100 to 1000 | < 10 |
| CC1(C)C[C@H]2N(c3cccc(N=S(C)(C)=O)n3)c3nc(Nc4cnn(C5CCOCC5)c4)ncc3[C@@]2(C)CO1 (single isomer, unassigned) [Example 194] |  |  | 100 to 1000 | < 10 |
| CN1CC[C@@H](Oc2ccc(Nc3ncc4c(n3)N(c3cccc(N5CCOC5=O)n3)[C@@H]3CC(C)(C)OC[C@]43C)cc2)C1 [Example 624, 3-(6-((4bR,8aR)-4b,7,7-trimethyl-2-((4-(((R)-1-methylpyrrolidin-3-yl)oxy)phenyl)amino)-4b,7,8,8a-tetrahydropyrano[3′,4′:4,5]pyrrolo[2,3-d]pyrimidin-9(5H)-yl)pyridin-2-yl)oxazolidin-2-one] | 100 to 1000 | < 10 |  |  |
| C[C@H]1CCC(=O)N1c1cccc(N2c3nc(Nc4ccc(N5CC6(CN(C)C6)C5)cc4)ncc3[C@@]3(C)COCC[C@@H]23)n1 (single isomer, unassigned) [Example 776] | 100 to 1000 | < 10 |  |  |
| Cc1cc(Nc2ncc3c(n2)N(c2cccc(C(C)(C)O)n2)[C@@H]2CC(C)(C)OC[C@]32C)ccc1N1C[C@H]2C[C@@H]1CN2C (single isomer, unassigned) [Example 425] | 100 to 1000 | < 10 |  |  |
| CN1CC2(C1)CN(c1ccc(Nc3ncc4c(n3)N(c3cccc(N=S(C)(C)=O)n3)[C@@H]3CC(C)(C)OC[C@]43C)cc1)C2 [Example 219, dimethyl((6-((4bR,8aR)-4b,7,7-trimethyl-2-((4-(6-methyl-2,6-diazaspiro[3.3]heptan-2-yl)phenyl)amino)-4b,7,8,8a-tetrahydropyrano[3′,4′:4,5]pyrrolo[2,3-d]pyrimidin-9(5H)-yl)pyridin-2-yl)imino)-l6-sulfanone] |  |  | 100 to 1000 | < 10 |
| CN1CC[C@H](c2ccc(Nc3ncc4c(n3)N(c3cccc(N5CCCC5=O)n3)[C@@H]3CC(C)(C)OC[C@]43C)cc2)C1 [Example 634, 1-(6-((4bR,8aR)-4b,7,7-trimethyl-2-((4-((R)-1-methylpyrrolidin-3-yl)phenyl)amino)-4b,7,8,8a-tetrahydropyrano[3′,4′:4,5]pyrrolo[2,3-d]pyrimidin-9(5H)-yl)pyridin-2-yl)pyrrolidin-2-one] | 100 to 1000 | < 10 |  |  |
| Cc1cc(Nc2ncc3c(n2)N(c2cccc(N4CCOC4=O)n2)[C@@H]2CC(C)(C)OC[C@]32C)ccc1C1CCN(C)CC1 (single isomer, unassigned) [Example 597] | 100 to 1000 | < 10 |  |  |
| Cc1cc(Nc2ncc3c(n2)N(c2cccc(C(=O)N(C)C)n2)[C@@H]2CC(C)(C)OC[C@]32C)ccc1C1CCN(C)CC1 (single isomer, unassigned) [Example 585] | 100 to 1000 | < 10 |  |  |

Other lines, results leading:

| IC50 [1, 2] [nM] | IC50 (Wee1 kinase domain; [3]) [nM] | IC50 ([1]; A-427, pCDC2 MSD) [nM] | IC50 (Wee1 kinase domain; Wee1 kinase domain, ADP-Glo) [nM] | Compound |
| --- | --- | --- | --- | --- |
| 100 to 1000 | < 10 |  |  | CC1(C)C[C@H]2N(c3cccc([C@@H]4CCCN4)n3)c3nc(Nc4ccc(N5CCOCC5)cc4)ncc3[C@@]2(C)CO1 (single isomer, unassigned) [Example 526] |
|  |  | < 100 | < 10 | CNC(=O)c1ccc(Nc2ncc3c(n2)N(c2cccc(N=S(C)(C)=O)n2)[C@@H]2CC(C)(C)OC[C@]32C)cc1 (single isomer, unassigned) [Example 117] |
| 100 to 1000 | < 10 |  |  | CC1(C)C[C@H]2N(c3cccc(N4CCCC4=O)n3)c3nc(Nc4ccc([C@H]5CCNC5)cc4)ncc3[C@@]2(C)CO1 [Example 636, 1-(6-((4bR,8aR)-4b,7,7-trimethyl-2-((4-((R)-pyrrolidin-3-yl)phenyl)amino)-4b,7,8,8a-tetrahydropyrano[3′,4′:4,5]pyrrolo[2,3-d]pyrimidin-9(5H)-yl)pyridin-2-yl)pyrrolidin-2-one] |
| 100 to 1000 | < 10 |  |  | CC1(C)C[C@H]2N(c3cccc(N=S4(=O)CCCC4)n3)c3nc(NC(=O)C4CC4)ncc3[C@@]2(C)CO1 (single isomer, unassigned) [Example 400] |
|  |  | < 100 | < 10 | Cc1cc(Nc2ncc3c(n2)N(c2cccc(N=S(C)(C)=O)n2)[C@@H]2CC(C)(C)OC[C@]32C)ccc1[C@H]1COCCN1 (single isomer, unassigned) [Example 120] |
|  |  | 100 to 1000 | < 10 | C[C@H]1COC(=O)N1c1cccc(N2c3nc(Nc4cn(C5CCN(C)CC5)nn4)ncc3[C@@]3(C)COC(C)(C)C[C@@H]23)n1 (single isomer, unassigned) [Example 253] |
| 1000 to 10000 | < 10 |  |  | CN1C[C@@H]2C[C@H]1CN2c1ccc(Nc2ncc3c(n2)N(c2cccc(P(C)(C)=O)n2)[C@@H]2CC(C)(C)OC[C@]32C)cc1 [Example 777, dimethyl(6-((4bR,8aR)-4b,7,7-trimethyl-2-((4-((1S,4S)-5-methyl-2,5-diazabicyclo[2.2.1]heptan-2-yl)phenyl)amino)-4b,7,8,8a-tetrahydropyrano[3′,4′:4,5]pyrrolo[2,3-d]pyrimidin-9(5H)-yl)pyridin-2-yl)phosphine oxide] |
| 100 to 1000 | < 10 |  |  | CC1(C)C[C@H]2N(c3cccc(N4CCCC4=O)n3)c3nc(Nc4ccc(O[C@@H]5CCNC5)cc4)ncc3[C@@]2(C)CO1 [Example 616, 1-(6-((4bR,8aR)-4b,7,7-trimethyl-2-((4-(((R)-pyrrolidin-3-yl)oxy)phenyl)amino)-4b,7,8,8a-tetrahydropyrano[3′,4′:4,5]pyrrolo[2,3-d]pyrimidin-9(5H)-yl)pyridin-2-yl)pyrrolidin-2-one] |
| 100 to 1000 | < 10 |  |  | CNCc1cccc(N2c3nc(Nc4ccc([C@H]5CCNC5)cc4)ncc3[C@@]3(C)COC(C)(C)C[C@@H]23)n1 (single isomer, unassigned) [Example 452] |
| 1000 to 10000 | < 10 |  |  | CNCc1cccc(N2c3nc(Nc4ccc(C(C)(C)C(=O)O)cc4)ncc3[C@@]3(C)COC(C)(C)C[C@@H]23)n1 (single isomer, unassigned) [Example 458] |
|  |  | 100 to 1000 | < 10 | CN1C[C@@H]2CN(c3ccc(Nc4ncc5c(n4)N(c4cccc(N=S(C)(C)=O)n4)[C@@H]4CC(C)(C)OC[C@]54C)cc3)C[C@@H]2C1 (single isomer, unassigned) [Example 217] |
|  |  | 100 to 1000 | < 10 | CNCc1cccc(N2c3nc(Nc4ccc(N5C(=O)CC[C@H]5C)cc4)ncc3[C@@]3(C)COC(C)(C)C[C@@H]23)n1 (single isomer, unassigned) [Example 30] |
| 100 to 1000 | < 10 |  |  | CN1CC2(C1)CN(c1ccc(Nc3ncc4c(n3)N(c3cccc(C(C)(C)O)n3)[C@@H]3CC(C)(C)OC[C@]43C)cc1)C2 (single isomer, unassigned) [Example 443] |
| 100 to 1000 | < 10 |  |  | CN1C[C@@H]2C[C@H]1CN2c1ccc(Nc2ncc3c(n2)N(c2cccc(C4(O)CC4)n2)[C@@H]2CC(C)(C)OC[C@]32C)cc1 [Example 644, 1-(6-((4bR,8aR)-4b,7,7-trimethyl-2-((4-((1S,4S)-5-methyl-2,5-diazabicyclo[2.2.1]heptan-2-yl)phenyl)amino)-4b,7,8,8a-tetrahydropyrano[3′,4′:4,5]pyrrolo[2,3-d]pyrimidin-9(5H)-yl)pyridin-2-yl)cyclopropan-1-ol] |
| < 100 | < 10 |  |  | C[C@@H]1CN(c2ccc(Nc3ncc4c(n3)N(c3cccc(N=S(C)(C)=O)n3)[C@@H]3CC(C)(C)OC[C@]43C)cc2)CCN1C (single isomer, unassigned) [Example 499] |
| < 100 | < 10 |  |  | CC1(C)C[C@H]2N(c3cccc(C(C)(C)O)n3)c3nc(Nc4ccc(O[C@H]5CCNC5)cc4)ncc3[C@@]2(C)CO1 (single isomer, unassigned) [Example 419] |
|  |  | 100 to 1000 | < 10 | CN[C@H](C)c1cccc(N2c3nc(Nc4ccn(C5CCOCC5)c(=O)c4)ncc3[C@@]3(C)COC(C)(C)C[C@@H]23)n1 (single isomer, unassigned) [Example 391] |
